Measurements published in patent publication US11357786B2, “Synthetic disugar hydrocarbons as natural analogs to control microbial behaviors” (Syracuse University, priority 2014, dated 2022).

How the values were obtained:
Assay type in all cases: cell-based, Pseudomonas aeruginosa
PAO1-GFP = assay: microbe, parasite or virus in culture
Protocol: (§1) A crystal violet (CV) assay was used to measure the amount of PAO1 biofilm formed after 24 h of bacterial inoculation. The fluorescence of green fluorescent proteins (GFP) expressed by PAO1-GFP was measured to directly quantify bacterial adhesion on polystyrene black 96 well plates with and without maltose derivatives after 2 h of bacterial inoculation. To evaluate the potential of maltose derivatives as both anti-biofilm and anti-adhesion agents, they were compared to a brominated furanone (BF8) known to inhibit biofilm formation, and two generic surfactants, sodium dodecyl sulfate (SDS) and tetra (ethylene glycol) monododecyl ether (C12EG4OH). […] P. aeruginosa strain PAO1-EGFP that constitutively producing green fluorescent protein was allowed to form biofilm on sterile steel coupons.
Overnight culture of PAO1-GFP was subcultured to an OD600 of 0.01 into the 95:5 M9+:Lb medium. Subculture was allowed to reach the OD600 of 0.1 in a rotary shaker at 250 rpm and 37° C. 200 μL of the subculture was then transferred to the wells of black microtiter plate with and without (control) maltose derivatives. This black 96 well plate was then incubated in a shaker at 37° C. for 2 h. After 2 h, bacterial culture from the plate was discarded and each well was washed once with saline water (0.85 w/v % aqueous NaCl solution). Fresh 95:5 M9+:Lb medium was added to the black 96 well plate and fluorescence of the surface adhered bacteria was measured by Synergy 2 multi-mode microplate reader with Gen5 data analysis software at an excitation wavelength of 500 nm and an emission wavelength of 540 nm. Background signal from 95:5 M9+:Lb medium was eliminated from all the samples.

PAO1-EGFP biofilm = assay: Biofilm on steel coupons, fluorescence / CLSM; conditions: 160 μM, 24 h, LB media
Protocol: as §1
Confocal laser scanning microscopy (CLSM) based biofilm inhibition assay. Steel coupons (˜1×1 cm) were washed with EtOH, dried under a stream of nitrogen and then sterilized in an autoclave. Overnight culture of PAO1/EGFP (OD600 ˜1.0) grown in LB media (supplemented with 300 μg/mL of carbenicillin), was sub-cultured to OD600˜0.01 and then the OD600 was allowed to reach ˜0.1. Aliquot (600 μL) of PAO1/EGFP subculture OD600˜0.1 was then added into the wells of a 24-well micro titer plate. DSHs were then introduced into the assigned wells to reach a resultant concentration of 160 μM. Bacterial sub-culture with no agent served as positive control. Sterile steel coupons were then placed into the wells and the plates were wrapped with saran wrap and incubated for 24 h at 37° C. under static conditions. After 24 hours, the steel coupons were removed and washed by dipping in PBS buffer (2 washes) and the dried by holding with a forcep and gently dabbing the edge on a bleached paper (KIM wipes). The dried steel coupons were viewed under confocal laser scanning microscope (CLSM). Images were taken at 4 random locations on each steel coupons. Z-stacked images were also taken to determine the relative thickness of the biofilm.

[1] = test system: las quorum sensing system; assay: las quorum sensing gene reporter assay (plasI-LVAgfp); conditions: natural autoinducers present
Excerpt: The ability of the maltoside derivatives to antagonize the two quorum sensing circuits las and/or rhl of P. aeruginosa was investigated by using two reporter strains (PAO1/plasI-LVAgfp, PAO1/prhlI-LVAgfp). These reporter strains produce natural AHL signals, and binding of such signal molecules to the Lux-type receptor proteins ([…]) activates the expression of green fluorescent protein (GFP) encoded by the plasmid.
One of the recent approach for a nonmicrobicidal control of biofilm aims to develop agents that disrupt bacterial cell-to-cell communication by acting as mimics to the natural molecules (autoinducer) that bind […], which are encoded by las and rhl gene. The binding of these mimics with lasR and rhlR proteins either activates or represses the expression of lasI or rhlI.^6 In gene reporter assay, the expression of lasI and rhlI proteins is quantified by measuring expression of green fluorescent protein (GFP) fused to lasI and rhlI genes.^5 Two reporter strains of Pseudomonas aeruginosa (PAO1/plasI_LVAgfp and PAO1/prhlI_LVAgfp) express green fluorescence protein on activation of las or rhl quorum sensing system. The activation or repression of las or rhl quorum sensing system in PA was tested by various DSHs.
Strains PAO1/plasI-LVAgfp and PAO1/prhlI-LVAgfp were grown overnight in LB-media that was supplemented with 300 μg/mL carbenicillin and after 16 hours, the bacteria were sub cultured in LB media (supplemented with 300 μg/mL carbenicillin) to OD600 as 0.01. The OD600 was allowed to reach 0.1 and then 200 μL of culture was aliquoted into the wells of 96-well microtiter plate. DSHs were then added to assigned wells at two different concentrations (85 μM and 160 μM). No agent was added to the well for positive control. The plates then incubated at 37° C. for 24 h in a rotary shaking incubator (250 rpm). The culture from each well was then transferred to corresponding wells of a black walled flat-bottom, 96-well plate (μClear, Greiner-One 655096). The fluorescence and OD absorbance in each well was measured by Synergy 2 multi-mode microplate reader with aGen5 data analysis software. […] Fluorescence was measured at an excitation wavelength of 500 nm and an emission wavelength of 540 nm.
For an antagonist assay, overnight culture of P. aeruginosa PAO1/plasI-LVAgfp (las system) or PAO1/prhlI-LVAgfp (rhl system) in LB broth (supplemented with 300 μg/mL carbenicillin) was grown from a single colony on a LB agar plate supplemented with 300 μg/mL carbenicillin. […] The fluorescence and OD absorbance in each well was measured by Synergy 2 multi-mode microplate reader with Gen5 data analysis software. […] Fluorescence was measured at an excitation wavelength of 500 nm and an emission wavelength of 540 nm. […]

Row | Compound | PAO1-EGFP biofilm on stainless steel coupons (CLSM) (PAO1-EGFP biofilm) | Change of GFP fluorescence, las reporter strain PAO1/plasI-LVAgfp (antagonist assay) [1] | also measured
1 | CCCCCCCCCCCCOCCOCCOCCOCCO [C12EG4OH, tetra (ethylene glycol) monododecyl ether, reference compound] | – | – | Inhibition of PAO1-EGFP adhesion on polystyrene (PAO1-GFP; 85 μM, 2 h): about 40%
2 | CCCCCCCCCCCCOS(=O)(=O)[O-].[Na+] [SDS, sodium dodecyl sulfate, reference compound] | – | – | inhibition at 85 µM (PAO1-GFP; Pseudomonas aeruginosa, PAO1, 2 h, read-out: Inhibition of PAO1-EGFP adhesion on polystyrene): ~40%
3 | CC(C)CCCC(C)CCCC(C)CCO[C@H]1O[C@H](CO)[C@@H](O[C@@H]2O[C@H](CO)[C@@H](O)[C@H](O)[C@H]2O)[C@H](O)[C@H]1O (stereo partly drawn) [SFαC (13), saturated farnesyl-α-cellobioside] | decreased the fluorescence signal significantly | neither SFβC (12) nor SFαC (13) caused a significant change in the fluorescence | Change of GFP fluorescence, las reporter strain PAO1/plasI-LVAgfp (antagonist assay) ([1]; listed as 13: SFαC): no significant change in the fluorescence
4 | CC(C)CCCC(C)CCCC(C)CCO[C@@H]1O[C@H](CO)[C@@H](O[C@@H]2O[C@H](CO)[C@@H](O)[C@H](O)[C@H]2O)[C@H](O)[C@H]1O (stereo partly drawn) [SFβC (12), saturated famesyl-β-cellobioside] | decreased the fluorescence signal significantly | neither SFβC (12) nor SFαC (13) caused a significant change in the fluorescence | Change of GFP fluorescence, las reporter strain PAO1/plasI-LVAgfp (antagonist assay) ([1]; listed as 12: SFβC): no significant change in the fluorescence
